Here are results for six compounds from patent US9593305B2, “Differentiation of pluripotent stem cells” (Janssen Biotech, Inc., priority 2008, dated 2017).

Test [1] deals with H1 human embryonic stem cells. Description: Dose ranging of compounds with activin A or GDF-8, SOX17 and cell number (Example 15). In kind it is cell-based. The conditions noted are these: for SOX17 expression in combination with GDF-8 / cell numbers at the end of assay in combination with GDF-8: 78 nM to 10 μM compound with 100 ng/ml GDF-8; for SOX17 expression with activin A treatment: 78 nM to 10 μM compound with 100 ng/ml activin A, one or three days of compound. The procedure: Stock cultures of human embryonic stem cells (H1 human embryonic stem cell line) were maintained in an undifferentiated, pluripotent state on reduced growth factor […]™ (BD Biosciences; Cat #356231)-coated dishes in MEF conditioned medium supplemented with 8 ng/ml bFGF (PeproTech Inc.; Cat #100-18B) with passage on average every four days. Passage was performed, by exposing cell cultures to a solution of 1 mg/ml dispase (Invitrogen; Cat #17105-041) for 5 to 7 minutes at 37° C. followed by rinsing the monolayer with MEF conditioned culture medium and gentle scraping to recover cell clusters. Clusters were centrifuged at low speed to collect a cell pellet and remove residual dispase. Cell clusters were split at a 1:3 or 1:4 ratio for routine maintenance culture or a 1:1 ratio for immediate assay. All human embryonic stem cell lines were maintained at passage numbers less than 50 and routinely evaluated for normal karyotype and absence of mycoplasma.
Cell clusters were evenly resuspended in MEF conditioned medium supplemented with 8 ng/ml bFGF and seeded onto reduced growth factor […]™-coated 96-well Packard VIEWPLATES (PerkinElmer; Cat #6005182) in volumes of 0.1 ml/well. Daily feeding was conducted by aspirating spent culture medium from each well and replacing with an equal volume of fresh medium. Plates were maintained at 37° C., 5% CO2 throughout the duration of assay.
Assay was initiated by aspirating the culture medium from each well and adding back aliquots (100 μl) of test medium. Test conditions were performed in quadruplicate over a total four-day assay period, feeding daily by aspirating and replacing the medium from each well with fresh test medium. […] Test compounds in this assay included six of the compounds of the present invention: Compound 181, Compound 180, Compound 19, Compound 202, Compound 40, and Compound 34, and a commercial GSK31 inhibitor BIO (EMD Chemicals, Inc.; Cat #361550). On the first day of assay, wells were treated with various control or experimental conditions. Control conditions, with final assay concentrations as indicated, were as follows: 1) growth medium alone; 2) 20 ng/ml Wnt3a only R&D Systems; Cat #1324-WN/CF); 3) 100 ng/ml activin A (PeproTech; Cat #120-14); 4) 100 ng/mlactivin A and 20 ng/ml Wnt3a; 5) 100 ng/ml GDF-8 (R&D Systems, Cat #788-G8); 6) 100 ng/ml GDF-8 and 20 ng/ml Wnt3a. Test compounds were diluted two-fold in series to yield a concentration range from 78 nM to 10 μM in the final assay. Experimental test samples combined each individual compound dilution series with 100 ng/ml activin A or 100 ng/ml GDF-8, both treatment sets in the absence of Wnt3a. On the second and third day of assay, some wells continued to be treated with 20 ng/ml Wnt3a or diluted test compound in combination with either activin A or GDF-8. In other wells, activin A or GDF-8 treatment continued on the second and third day of assay, but Wnt3a or diluted test compound was removed.
At the conclusion of culture, assay plates were washed once with PBS (Invitrogen; Cat #14190), fixed with 4% paraformaldehyde (Alexis Biochemical; Cat #ALX-350-011) at room temperature for 20 minutes, then washed three times with PBS and permeabilized with 0.5% Triton X-100 (Sigma; Cat #T8760-2) for 20 minutes at room temperature. Cells were washed again three times with PBS and blocked with 4% chicken serum (Invitrogen; Cat #16110082) in PBS for 30 minutes at room temperature. Primary antibody (goat anti-human SOX17; R&D Systems; Cat #AF1924) was diluted 1:100 in 4% chicken serum and added to each well for two hours at room temperature. After washing three times with PBS, Alexa Fluor 488 conjugated secondary antibody (chicken anti-goat IgG; Invitrogen; Cat #A21467) diluted 1:200 in PBS was added to each well. To counterstain nuclei, 5 μg/ml Hoechst 33342 (Invitrogen; Cat #H3570) was added for fifteen minutes at room temperature. Plates were washed once with PBS and left in 100 μl/well PBS for imaging. […]

Test [2] has as its system H1 human embryonic stem cells. The experiment in a line: Step-wise differentiation, FACS for CXCR4 after step 1 (Example 12). In kind it is cell-based. The settings on record: compared to activin A and Wnt3a. The procedure: The assay was initiated by aspirating the culture medium from each well and adding back an aliquot (0.5 ml) of test medium. Test conditions for the first step of differentiation were conducted over a three-day period, feeding daily by aspirating and replacing the medium from each well with fresh test medium. On the first day of assay, 100 ng/ml activin A (PeproTech; Cat #120-14) or 200 ng/ml GDF-8 (R&D Systems, Cat #788-G8) was added to respective assay wells where each growth factor was diluted into RPMI-1640 medium (Invitrogen; Cat #22400) with 1% Albumin Bovine Fraction V, Fatty Acid Free (FAF BSA) (MP Biomedicals, Inc; Cat 152401), 1% Probumin (Millipore; Cat #81-068-3) and 20 ng/ml Wnt3a (R&D Systems; Cat #1324-WN/CF). On the second day of assay, 100 ng/ml activin A or 200 ng/ml GDF-8 was diluted into RPMI-1640 medium supplemented with 2% FAF BSA without Wnt3a. In some test samples using GDF-8, Wnt3a was replaced with a either Compound 34 or Compound 56 at a concentration of 2.5 μM, and either Compound 34 or Compound 56 was added daily during all three days of definitive endoderm differentiation. At the conclusion of the first step of differentiation, cells from some wells were harvested for flow cytometry analysis to evaluate levels of CXCR4, a marker of definitive endoderm formation. Additional wells were harvested for RT-PCR analysis to measure other markers of differentiation.
Cells for FACS analysis were blocked in a 1:5 solution of 0.5% human gamma-globulin (Sigma; Cat#G-4386) in PBS (Invitrogen; Cat #14040-133): BD FACS staining buffer-BSA (BD; Cat #554657) for 15 minutes at 4° C. Cells were then stained with antibodies for CD9 PE (BD; Cat #555372), CD99 PE (Caltag; Cat #MHCD9904) and CXCR4 APC(R&D Systems; Cat#FAB 173A) for 30 minutes at 4° C. After a series of washes in BD FACS staining buffer, the cells were stained for viability with 7-AAD (BD; Cat #559925) and run on a BD FACSAiray. A mouse IgG1K Isotype control antibody for both PE and APC was used to gate percent positive cells.

Where [3] appears, read: 200 ng/ml GDF-8 with 2.5 μM compound all three days.

In the case of `CN1CCC(=O)NCCCc2cncc(c2)-c2ncnc(n2)Nc2cccc(c2)C1` [Compound 19, 14-Methyl-3,5,7,14,18,24,28-heptaazatetracyclo[20.3.1.1˜2,6˜0.1˜8,12˜]octacosa-1(26), 2(28), 3,5,8(27), 9,11,22,24-nonaen-17-one], in test [1], the “SOX17 expression in combination with GDF-8” value (shortened to “SOX17 expression … with GDF-8”) was “significantly improved SOX17 expression”, the “cell numbers at the end of assay in combination with GDF-8” value (“cell numbers at the end of assay” for short) is “enhanced cell numbers” and the “SOX17 expression with activin A treatment” value is recorded as “did not enhance SOX 17 expression”.

Take `O=C1CCN2CCN(CC2)Cc2cc(Cl)cc(c2)Nc2ncnc(n2)-c2cncc(c2)CCCN1` [Compound 34, 5-Chloro-1,8,10,12,16,22,26,32-octaazapentacyclo[24.2.2.1˜3.7˜0.1˜9,13˜0.1˜14.18˜]tritriaconta-3(33), 4,6,9(32), 10,12,14(31), 15,17-nonaen-23-one]: the “percentage of CXCR4 positive cells after step 1” value (“percentage” for short) in test [2] (setting [3]) is “equivalent or higher percentage of CXCR4 positive cells”. In test [1], the “SOX17 expression … with GDF-8” value is “significantly improved SOX17 expression”, the “cell numbers at the end of assay” value is given as “enhanced cell numbers” and the “SOX17 expression with activin A treatment” value was “did not enhance SOX 17 expression”.

As to `C=CCN1CC(=O)NCCCc2cncc(c2)-c2ncnc(n2)Nc2cccc(c2)C1` [Compound 40, 14-Prop-2-en-1-yl-3,5,7,14,17,23,27-heptaazatetracyclo[19.3.1.1˜2.6˜0.1˜8,12˜]heptacosa-1(25), 2(27), 3,5,8(26), 9,11,21,23-nonaen-16-one], in test [1], the “SOX17 expression … with GDF-8” value was “significantly improved SOX17 expression”, the “cell numbers at the end of assay” value is “enhanced cell numbers” and the “SOX17 expression with activin A treatment” value was “did not enhance SOX 17 expression”.

Regarding `Cc1c[nH]c(-c2cnc(NCCNc3ccc(C#N)cn3)nc2-c2ccc(Cl)cc2Cl)n1` [Compound 56, 6-[(2-{[4-(2,4-Dichlorophenyl)-5-(4-methyl-1H-imidazol-2-yl)pyrimidin-2-yl]amino}ethyl)amino]pyridine-3-carbonitrile], the “percentage” value in test [2] (setting [3]) is reported as “equivalent or higher percentage of CXCR4 positive cells”.

In the case of “Activin A: recombinant human activin A (PeproTech), TGF-beta family member”, the “SOX17 expression, control treatments” value in test [1] (100 ng/ml activin A versus 100 ng/ml GDF-8, alone or with Wnt3a) is “significantly higher SOX17 expression”.

Turning to “GDF-8: growth factor GDF-8, also known as myostatin, member of the TGF-β family”, the “percentage” value in test [2] (200 ng/ml GDF-8 with Wnt3a) is reported as “equivalent percentage of CXCR4 positive cells”.
